Measured values from PubChem BioAssay AID1963840 (Molecular Pharmacology Branch, DTP, NCI, 2024).

Tested on: 695427-040-R-J1-PDC complex spheroid viability
Test: Anticancer human tumor 695427-040-R-J1-PDC patient-derived colon adenocarcinoma cell line growth inhibition [POLQ]
Conditions: for IC50: curve of first compound; for viability, T/C: stronger effect = lower value
Procedure: Multicellular complex tumor spheroid response to Polymerase (POL) inhibitors (novobiocin, ART-558, RP6685) in combination with a variety of drugs and investigational agents in selected tumor cell lines
The POL inhibitors (novobiocin, ART-558, and RP6685) were evaluated both individually and in combination with standard of care and investigational anticancer small molecules within a complex spheroid model of solid tumors. . Complex spheroids include a stromal component modeled by human endothelial cells (HUVEC) and fibroblasts modeled by human mesenchymal stem cells (MSCs). The concentration ranges selected for each drug and investigational agent were based upon clinically achievable concentrations if the clinical Cmax of the agent was known.
Compounds. The drugs and investigational agents: novobiocin (NSC847541), ART-558 (NSC835418), RP-6685 (NSC848927), peposertib (NSC802822), ceralasertib (NSC780249), elimusertib (NSC800525), camonsertib (NSC841442), AZD-1390 (NSC803789), olaparib (NSC753686), talazoparib (NSC767125), rucaparib (NSC756644), sotorasib (NSC818433), MRTX-1133 (NSC836407), SN-38 (NSC673596), topotecan (NSC609699), epotoside (NSC141540), doxorubicin (NSC123127), gemcitabine (NSC613327), 5-fluorouracil (NSC19893), paclitaxel (NSC125973), vemurafenib (NSC761431), MSA-2 (NSC828583), SN-011 (NSC837082), adavosertib (NSC754352), prexasertib (NSC758257), carboplatin (NSC241240) and oxaliplatin (NSC266046), were obtained from the National Cancer Institute (NCI) Developmental Therapeutics Program Chemical Repository (21). The FDA-approved anticancer drug set is available from the Developmental Therapeutics Program at https://dtp.cancer.gov/organization/dscb/obtaining/. […] The stock solutions were prepared in dimethyl sulfoxide (DMSO, Sigma-Aldrich, St. Louis, MO, cat. D2650), except for the platinum compounds which were prepared in saline (Quality Biological, Gaithersburg, MD, cat. 114-055-101), at 800-fold the tested concentration and stored at -70 degrees C prior to their use. All drugs and investigational agents were tested over a range starting from a high concentration at or near the clinical Cmax and decreasing in half-log increments. If the clinical Cmax for an agent had not been determined, the highest concentration tested was 10 microM, except for SN-38, which was tested at a high concentration of 1 microM.
Cell Culture. All cells were maintained in an incubator at 37 degrees C and 5% CO2 with 95% humidity. The PDC lines were cultured according to standard operating procedures established by the NCI PDMR (https://pdmr.cancer.gov). Table 3 of the manuscript, lists the cell lines along with the number of the three cell types plated to form the mct-spheroids and media for tumor cell growth. After thawing, all PDC lines, except 997537-175-T-J1-PDC and 415267-285-R-J2-PDC, were cultured in Matrigel-coated flasks prepared with a working solution of 1X Ham's F-12 nutrient mix, without supplementation (Thermo Fisher Scientific, cat. 11765054), 100 U/mL penicillin-streptomycin (Thermo Fisher Scientific, cat. 15140122), and 2.5% Matrigel (Corning Inc., Corning, NY, cat. 354248) for the first three passages. The two PDC lines 997537-175-T-J1-PDC and 415267-285-R-J2-PDC were cultured on uncoated flasks. The 857933-349-R-J2-PDC line was cultured in 6C/Colon 1B media containing advanced DMEM/F-12 (Thermo Fisher Scientific, cat. 12634028), 10 mM HEPES (Thermo Fisher Scientific, cat. 15630080), 1X GlutaMAX supplement (Thermo Fisher Scientific, cat. 35050061), 0.1 mg/mL primocin (InvivoGen, San Diego, CA, cat. ant-pm-2), 10% defined fetal bovine serum, heat inactivated (HyClone Laboratories Inc., Logan, UT, cat. SH30070.03HI), 50% L-WRN conditioned media (ATCC, cat. CRL-3276), 1.25 mM N-Acetyl-L-cysteine (Sigma-Aldrich, cat. A9165), 10 mM nicotinamide (Sigma-Aldrich, cat. N0636), 1X B-27 supplement (Thermo Fisher Scientific, cat. 17504044), 1X N-2 supplement (Thermo Fisher Scientific, cat. […]

[1] = second compound 0.0316 µM, first compound 0.0316 µM
[2] = second compound 0.0316 µM, first compound 0.1 µM
[3] = second compound 0.0316 µM, first compound 0.316 µM
[4] = second compound 0.0316 µM, first compound 1 µM
[5] = second compound 0.0316 µM, first compound 3.16 µM
[6] = second compound 0.0316 µM, first compound 10 µM
[7] = second compound 0.1 µM, first compound 0.0316 µM
[8] = second compound 0.1 µM, first compound 0.1 µM
[9] = second compound 0.1 µM, first compound 0.316 µM
[10] = second compound 0.1 µM, first compound 1 µM
[11] = second compound 0.1 µM, first compound 3.16 µM
[12] = second compound 0.1 µM, first compound 10 µM
[13] = second compound 0.316 µM, first compound 0.0316 µM
[14] = second compound 0.316 µM, first compound 0.1 µM
[15] = second compound 0.316 µM, first compound 0.316 µM
[16] = second compound 0.316 µM, first compound 1 µM
[17] = second compound 0.316 µM, first compound 3.16 µM
[18] = second compound 0.316 µM, first compound 10 µM
[19] = second compound 1 µM, first compound 0.0316 µM
[20] = second compound 1 µM, first compound 0.1 µM
[21] = second compound 1 µM, first compound 0.316 µM
[22] = second compound 1 µM, first compound 1 µM
[23] = second compound 1 µM, first compound 3.16 µM
[24] = second compound 1 µM, first compound 10 µM
[25] = second compound 3.16 µM, first compound 0.0316 µM
[26] = second compound 3.16 µM, first compound 0.1 µM
[27] = second compound 3.16 µM, first compound 0.316 µM
[28] = second compound 3.16 µM, first compound 1 µM
[29] = second compound 3.16 µM, first compound 3.16 µM
[30] = second compound 3.16 µM, first compound 10 µM
[31] = second compound 10 µM, first compound 0.0316 µM
[32] = second compound 10 µM, first compound 0.1 µM
[33] = second compound 10 µM, first compound 0.316 µM
[34] = second compound 10 µM, first compound 1 µM
[35] = second compound 10 µM, first compound 3.16 µM
[36] = second compound 10 µM, first compound 10 µM
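Note: spheroids exposed to compounds for seven days.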
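Throughout, for viability, T/C: 100% = DMSO vehicle control viability.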

## Nc1ccn(C2OC(CO)C(O)C2(F)F)c(=O)n1 (centres undefined) + COC1C(OC(N)=O)C(O)C(Oc2ccc3c(O)c(NC(=O)c4ccc(O)c(CC=C(C)C)c4)c(=O)oc3c2C)OC1(C)C
Second compound 0.0316 µM
  IC50: > 10 µM
Second compound 0.1 µM
  IC50: > 10 µM
Second compound 0.316 µM
  IC50: > 10 µM
Second compound 1 µM
  IC50: > 10 µM
Second compound 3.16 µM
  IC50: > 10 µM
Second compound 10 µM
  IC50: > 10 µM
[1]
  viability, T/C: 82%
[2]
  viability, T/C: 81.5%
[3]
  viability, T/C: 75.1%
[4]
  viability, T/C: 72.2%
[5]
  viability, T/C: 63.9%
[6]
  viability, T/C: 55.2%
[7]
  viability, T/C: 91.1%
[8]
  viability, T/C: 82.6%
[9]
  viability, T/C: 73.1%
[10]
  viability, T/C: 70%
[11]
  viability, T/C: 68.3%
[12]
  viability, T/C: 50.5%
[13]
  viability, T/C: 96.2%
[14]
  viability, T/C: 78.5%
[15]
  viability, T/C: 76.6%
[16]
  viability, T/C: 70.2%
[17]
  viability, T/C: 63.5%
[18]
  viability, T/C: 47.6%
[19]
  viability, T/C: 92%
[20]
  viability, T/C: 84%
[21]
  viability, T/C: 71.8%
[22]
  viability, T/C: 70%
[23]
  viability, T/C: 62.5%
[24]
  viability, T/C: 48.6%
[25]
  viability, T/C: 89.2%
[26]
  viability, T/C: 81.9%
[27]
  viability, T/C: 72.5%
[28]
  viability, T/C: 67%
[29]
  viability, T/C: 63.2%
[30]
  viability, T/C: 52.1%
[31]
  viability, T/C: 93.1%
[32]
  viability, T/C: 82.3%
[33]
  viability, T/C: 75.3%
[34]
  viability, T/C: 73.1%
[35]
  viability, T/C: 66.4%
[36]
  viability, T/C: 52.1%

## COc1cccc2c1C(=O)c1c(O)c3c(c(O)c1C2=O)CC(O)(C(=O)CO)CC3OC1CC(N)C(O)C(C)O1 (centres undefined) + Cc1cccc(N(C)C(=O)C2C(O)CCN2c2nc(C)cc(C(F)(F)F)c2C#N)c1
Second compound 0.0316 µM
  IC50: > 10 µM
Second compound 0.1 µM
  IC50: > 10 µM
Second compound 0.316 µM
  IC50: > 10 µM
Second compound 1 µM
  IC50: > 10 µM
Second compound 3.16 µM
  IC50: 8.57 µM
Second compound 10 µM
  IC50: 4.41 µM
[1]
  viability, T/C: 97.7%
[2]
  viability, T/C: 96.5%
[3]
  viability, T/C: 89.7%
[4]
  viability, T/C: 75.1%
[5]
  viability, T/C: 67.7%
[6]
  viability, T/C: 51%
[7]
  viability, T/C: 105%
[8]
  viability, T/C: 88.3%
[9]
  viability, T/C: 95.6%
[10]
  viability, T/C: 69%
[11]
  viability, T/C: 66.4%
[12]
  viability, T/C: 55.9%
[13]
  viability, T/C: 103%
[14]
  viability, T/C: 91.8%
[15]
  viability, T/C: 89.1%
[16]
  viability, T/C: 72.1%
[17]
  viability, T/C: 78.6%
[18]
  viability, T/C: 55.7%
[19]
  viability, T/C: 97.5%
[20]
  viability, T/C: 83.1%
[21]
  viability, T/C: 87.3%
[22]
  viability, T/C: 75.2%
[23]
  viability, T/C: 67.5%
[24]
  viability, T/C: 53.9%
[25]
  viability, T/C: 96.6%
[26]
  viability, T/C: 87.9%
[27]
  viability, T/C: 83.3%
[28]
  viability, T/C: 75.7%
[29]
  viability, T/C: 64.9%
[30]
  viability, T/C: 46.8%
[31]
  viability, T/C: 81.6%
[32]
  viability, T/C: 78.9%
[33]
  viability, T/C: 73.3%
[34]
  viability, T/C: 57.7%
[35]
  viability, T/C: 56.4%
[36]
  viability, T/C: 41.8%
